Experimental data: patent US7534436B2, “Peptide fragments of the harp factor inhibiting angiogenesis” (Centre National de la Recherche Scientifique (C.N.R.S.), priority 2002, dated 2009)
Where a SMILES comes first, the peptide text is derived from it.

Tests used:
[1] = tested on: angiogenesis induced by HARP; experiment: In vivo Matrigel angiogenesis model, angiogenesis induced by HARP; design: species or system Swiss mice; conditions: peptide 1 μM with HARP 5 nM in Matrigel, subcutaneous; day 7
Description: (§1) FIG. 6 represents the inhibition by the HARP peptides 13-39 and 65-97 of the angiogenesis induced by HARP in an in vivo model. Three hundred microlitres of Matrigel® incubated with 5 nM of HARP in the presence or absence of the HARP peptides 13-39 and 65-97 used at a concentration of 1 μM are injected subcutaneously into a mouse. The control of the experiment is achieved using FGF-2. Seven days later the mice are sacrificed and the Matrigel® is removed. Sections having a thickness of 8 μM are produced. The sections are then stained with Trichrome from Gomori. The number of cells which have invaded the Matrigel® is quantified by image analysis with NIH software. The results represent the mean value of an analysis of 7 sections per mouse (n=4 mice/group). The bars represent the standard margins for error (**, p<0.01).
(§2) This experiment was carried out using an in vivo angiogenesis model in mice. This experimental model consists in injecting Matrigel® containing a substance to be analysed for its angiogenesis stimulating or inhibiting properties. […]
(§3) The mice are sacrificed seven days after the injection of the Matrigel®. […] The number of endothelial cells which have invaded the Matrigel® is quantified by image analysis using NIH imaging software.

[2] = tested on: angiogenesis induced by FGF-2; experiment: In vivo Matrigel angiogenesis model, angiogenesis induced by FGF-2 (specificity control); design: species or system Swiss mice; conditions: peptide 1 μM with FGF-2 10 nM in Matrigel; day 7
Description: as §1, §2, §3

[3] = tested on: endothelial cells which have invaded the Matrigel; experiment: In vivo Matrigel angiogenesis model, substance used alone; design: species or system Swiss mice; conditions: day 7; for effect on angiogenesis when peptide used alone: peptide 1 μM alone in Matrigel; for increase in the number of endothelial cells by comparison with Matrigel used by itself: HARP 5 nM or FGF-2 10 nM in Matrigel
Description: as §1
This experiment was carried out using an in vivo angiogenesis model in mice. This experimental model consists in injecting Matrigel® containing a substance to be analysed for its angiogenesis stimulating or inhibiting properties. Four Swiss mice (Janvier, Genest St Isle, France) per group are injected with 300 μl of Matrigel® previously incubated with either 5 nM of HARP, 1 μM of HARP peptide 13-39 or 65-97, or with a mixture of HARP (5 nM) and HARP peptides 13-39 or 65-97 (1 μM). The control of the specificity of the inhibition is carried out using another angiogenic factor, FGF-2, tested either by itself at a concentration of 10 nM or supplemented by the HARP peptides 13-39 or 65-97 used at a concentration of 1 μM.
The mice are sacrificed seven days after the injection of the Matrigel®. This latter is removed and frozen in liquid nitrogen. Sections 8 μM thick are then effected with a cryostat. The sections are then stained with Trichrome from Gomori. The number of endothelial cells which have invaded the Matrigel® is quantified by image analysis using NIH imaging software.

[4] = tested on: PC3 cells (line resulting from prostate cancer); experiment: Tumour growth after injection of PC3 cells into nude mice; format: in vivo; conditions: 5 mg/kg daily injection in the region of the tumour
Description: Two million PC3 cells are injected into groups of 5 nude mice treated or not by daily injection in the region of the tumour with PBS (control) or with the HARP peptide 111-136 at a concentration of 5 mg/kg. The tumour growth for each group of animals is evaluated by measurement of the size of the tumour on day 9, 13, 16, 20, 23 and 27.
The capacity of the peptide P111-136 (SEQ ID NO: 4) to inhibit tumour angiogenesis has been tested by inducing tumour growth by injection of PC3 cells into nude mice in the presence or absence of peptide P111-136. 2×10^6 PC3 cells are injected into groups of 5 nude mice (nude/nude, Laboratoire IFFA CREDO) treated or not by injection in the region of the tumour of 100 μl per day of a solution of PBS (control group) or by a solution of peptide P111-136 diluted in PBS at a concentration of 5 mg/kg. On day 9, 13, 16, 20, 23 and 27 the size of the tumour is measured with the aid of a calliper gauge. The results are presented in FIG. 3 and indicate that the HARP peptide 111-136 used at a dose of 5 mg per kg induces an inhibition of the growth of the tumours.

[5] = tested on: endothelial cells in the tumour (PC3); experiment: Tumour angiogenesis in PC3 tumours of nude mice (isolectin B4 staining of endothelial cells, image analysis); format: in vivo; conditions: day 27; 5 mg/kg daily injection in the region of the tumour
Description: Two million PC3 cells are injected into groups of mice treated or not by daily injection in the region of the tumour with PBS (control) or with the peptide 111-136 at a concentration of 5 mg/kg. The mice are sacrificed on day 27. The quantification of the angiogenesis is effected on a section after immunohistological analysis using isolectine Bandeiraea Simplicifolia as a specific marker of the endothelial cells and image analysis. The values presented in the histogram represent the mean value obtained by analysing three independent sections resulting from each of six tumours obtained in each condition.
On day 27, the tumours are removed and freezing sections of 5 μm are produced. […] This lectin is then detected by immunomarking with the aid of a sandwich of specific antibodies marked with alkaline phosphatase. After incubation with a substrate of alkaline phosphatase (Vector Red substrate), the endothelial cells are stained red. The quantification of the number of endothelial cells in the tumour is carried out by image analysis (NIH image) by analysing the 6 tumours on 3 independent sections of one and the same tumour.

[6] = Bernard-Pierrot et al 2002; cited from earlier work
[7] = tested on: NIH 3T3 cells stimulated by HARP; conditions: 24 h, 10 μM
Description: After 24 hours' incubation the cellular proliferation is estimated by measurement of the tritiated thymidine incorporated by the cells.
Fibroblast cells of type NIH 3T3 are cultured at a density of 3×10^4 cells per cm^2 in DMEM culture medium supplemented with 10% of foetal calf serum. […] After this period of incubation, 0.5 μCi of [methyl-^3H]thymidine is added and 6 hours afterwards the cells are fixed by a 10% solution of trichloroacetic acid. The radioactivity incorporated by the cells is then counted by liquid scintillation after having effected a cell lysis with a solution of sodium hydroxide at a concentration of 0.1 N.

[8] = molecular target: anaplastic lymphoma kinase (ALK) (Homo sapiens, UniProt Q9UM73); conditions: high affinity tyrosine kinase receptor; Stoica et al, 2001; cited from earlier work
Chain of anaplastic lymphoma kinase (ALK) (Q9UM73 19-1620, species assumed): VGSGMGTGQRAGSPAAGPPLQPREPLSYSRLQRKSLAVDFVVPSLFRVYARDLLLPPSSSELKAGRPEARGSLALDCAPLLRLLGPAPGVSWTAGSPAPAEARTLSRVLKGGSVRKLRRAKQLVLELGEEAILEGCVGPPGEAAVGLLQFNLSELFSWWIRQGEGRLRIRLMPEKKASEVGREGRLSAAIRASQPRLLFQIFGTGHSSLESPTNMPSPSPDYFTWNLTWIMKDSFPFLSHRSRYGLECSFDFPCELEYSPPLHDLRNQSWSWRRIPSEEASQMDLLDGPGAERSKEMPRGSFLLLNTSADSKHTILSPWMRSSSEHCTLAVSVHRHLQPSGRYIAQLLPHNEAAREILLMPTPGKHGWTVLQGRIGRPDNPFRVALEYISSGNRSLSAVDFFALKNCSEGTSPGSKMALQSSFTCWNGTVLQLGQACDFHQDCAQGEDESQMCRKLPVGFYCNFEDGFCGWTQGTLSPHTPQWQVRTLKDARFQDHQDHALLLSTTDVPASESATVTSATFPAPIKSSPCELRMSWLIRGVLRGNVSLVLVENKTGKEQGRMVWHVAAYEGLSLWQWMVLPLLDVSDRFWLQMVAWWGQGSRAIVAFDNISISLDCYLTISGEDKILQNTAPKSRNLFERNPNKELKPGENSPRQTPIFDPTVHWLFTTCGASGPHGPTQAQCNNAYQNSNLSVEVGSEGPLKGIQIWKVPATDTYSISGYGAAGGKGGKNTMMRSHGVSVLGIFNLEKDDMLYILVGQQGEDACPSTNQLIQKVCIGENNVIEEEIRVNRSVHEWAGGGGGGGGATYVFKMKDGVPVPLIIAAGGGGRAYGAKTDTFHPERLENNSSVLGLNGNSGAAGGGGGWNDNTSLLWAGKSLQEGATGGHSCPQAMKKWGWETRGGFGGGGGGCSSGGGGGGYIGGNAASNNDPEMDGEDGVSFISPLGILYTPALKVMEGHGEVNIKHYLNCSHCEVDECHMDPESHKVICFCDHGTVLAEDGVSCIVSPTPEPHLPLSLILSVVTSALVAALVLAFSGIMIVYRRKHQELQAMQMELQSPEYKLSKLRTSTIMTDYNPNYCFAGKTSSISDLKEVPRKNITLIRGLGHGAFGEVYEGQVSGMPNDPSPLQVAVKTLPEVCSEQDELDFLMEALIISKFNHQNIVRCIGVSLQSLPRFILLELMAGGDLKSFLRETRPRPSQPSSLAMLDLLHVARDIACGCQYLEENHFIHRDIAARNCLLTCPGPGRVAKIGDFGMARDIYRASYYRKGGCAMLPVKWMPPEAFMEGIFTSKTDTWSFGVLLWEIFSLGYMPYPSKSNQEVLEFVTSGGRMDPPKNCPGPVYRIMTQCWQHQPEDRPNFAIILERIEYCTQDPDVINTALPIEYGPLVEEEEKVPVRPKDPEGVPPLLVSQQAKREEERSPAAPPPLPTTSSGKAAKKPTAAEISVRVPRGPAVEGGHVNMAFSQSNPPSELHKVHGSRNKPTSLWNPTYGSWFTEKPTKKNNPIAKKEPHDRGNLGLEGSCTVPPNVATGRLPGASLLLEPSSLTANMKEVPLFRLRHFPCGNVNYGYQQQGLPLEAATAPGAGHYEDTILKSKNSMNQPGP

Molecule	effect on angiogenesis induced by HARP [1]	effect on angiogenesis induced by FGF-2 [2]	effect on angiogenesis when peptide used alone [3]	increase in the number of endothelial cells by comparison with Matrigel used by itself [3]	other results
CC(C)C[C@H](NC(=O)[C@H](C)NC(=O)[C@H](CCCNC(=N)N)NC(=O)[C@H](CCCCN)NC(=O)[C@H](CC(C)C)NC(=O)[C@H](CO)NC(=O)CNC(=O)[C@@H](NC(=O)[C@H](CCCNC(=N)N)NC(=O)[C@@H](NC(=O)[C@H](CCCCN)NC(=O)[C@H](CC(C)C)NC(=O)[C@H](C)NC(=O)[C@@H](NC(=O)[C@H](CC(N)=O)NC(=O)[C@H](CC(C)C)NC(=O)[C@H](CC(=O)O)NC(=O)[C@H](CS)NC(=O)[C@H](CCC(=O)O)NC(=O)CNC(=O)[C@H](Cc1c[nH]c2ccccc12)NC(=O)[C@H](C)NC(=O)[C@H](CCC(N)=O)NC(=O)[C@H](Cc1ccccc1)NC(=O)[C@H](CCC(N)=O)NC(=O)[C@H](Cc1ccc(O)cc1)NC(=O)[C@H](CCCCN)NC(=O)[C@H](CS)NC(=O)[C@H](CCC(=O)O)NC(=O)[C@H](C)N)[C@@H](C)O)[C@@H](C)O)[C@@H](C)O)C(=O)N[C@@H](Cc1c[nH]cn1)C(=O)N[C@@H](CC(N)=O)C(=O)N[C@@H](C)C(=O)O [peptide 65-97] (H-AECKYQFQAWGECDLNTALKTRTGSLKRALHNA-OH; N-terminus and C-terminus assumed)	totally inhibit	no effect	No significant effect		
KLTKPKPQAESKKKKKEGKKQEKMLD (listed as Homo sapiens) [peptide 111-136, C-terminal peptide fragment of HARP, amino acids 111-136, acts on the ALK receptor]					rate of tumour growth, times less than in untreated mice ([4]; PC3 in nude mice): 4 times; mean size of the tumours smaller than in untreated mice ([4]; day 27): 80%; reduction in the intra-tumoral vessels [5]: 55%; mitogenic / angiogenic activity [6]: neither mitogenic n or angiogenic
FGF-2: another angiogenic factor, used as control of the specificity of the inhibition				5.8 times	
CC(C)C[C@H](NC(=O)CNC(=O)[C@H](CS)NC(=O)[C@H](CC(=O)O)NC(=O)CNC(=O)[C@H](CO)NC(=O)[C@@H](NC(=O)[C@@H]1CCCN1C(=O)[C@@H](NC(=O)[C@H](CS)NC(=O)[C@@H](NC(=O)[C@H](CO)NC(=O)[C@H](Cc1c[nH]c2ccccc12)NC(=O)[C@H](CCC(N)=O)NC(=O)[C@H](Cc1c[nH]c2ccccc12)NC(=O)[C@H](CCC(=O)O)NC(=O)CNC(=O)[C@H](CS)NC(=O)[C@H](CC(=O)O)NC(=O)[C@@H](N)CO)C(C)C)C(C)C)[C@@H](C)O)C(=O)NCC(=O)N[C@H](C(=O)N[C@@H](CCCNC(=N)N)C(=O)N[C@@H](CCC(=O)O)C(=O)NCC(=O)N[C@H](C(=O)N[C@@H](CCCNC(=N)N)C(=O)N[C@H](C(=O)O)[C@@H](C)O)[C@@H](C)O)[C@@H](C)O [peptide 13-39] (H-SDCGEWQWSVCVPTSGDCGLGTREGTRT-OH; N-terminus and C-terminus assumed)	totally inhibit	no effect	No significant effect		inhibition of the HARP activity (induction of cell proliferation) [7]: 60%
HARP: angiogenic heparin binding growth factor, mature protein of 136 or 139 amino acids (protein, UniProt P21246 33-168, looked up) Pleiotrophin: GKKEKPEKKVKKSDCGEWQWSVCVPTSGDCGLGTREGTRTGAECKQTMKTQRCKIPCNWKKQFGAECKYQFQAWGECDLNTALKTRTGSLKRALHNAECQKTVTISKPCGKLTKPKPQAESKKKKKEGKKQEKMLD				3 times	Kd [8]: 0.05 nM
